One substance from patent publication US20030109418A1, “Methods for identifying compounds for inhibition of neoplastic lesions, and pharmaceutical compositions containing such compounds” (priority 1999, published 2003) can be followed below.

The target in assay [1] is T1, PDE peak A (PDE5) from SW480 cells (Homo sapiens, UniProt O76074).
T1 construct: endogenous in cells; host or cells: SW480 colon cancer cells, DEAE-Trisacryl M fraction
The experiment in a line: cGMP hydrolysis inhibition, PDE peak A from SW480. The class given is biochemical. The following applies: cGMP hydrolysis, 0.25 μM 3H-cGMP.

The target of assay [2] is T2, purified cyclooxygenase (Type 1, COX-I) from ram seminal vesicles (Ovis aries, UniProt P05979).
T2 construct: using purified cyclooxygenase from ram seminal vesicles as described previously; tissue Cayman Chemical, Ann Arbor, Mich; (named in the general protocol only); host or cells: ram seminal vesicles
T2 sequence (P05979 25-600): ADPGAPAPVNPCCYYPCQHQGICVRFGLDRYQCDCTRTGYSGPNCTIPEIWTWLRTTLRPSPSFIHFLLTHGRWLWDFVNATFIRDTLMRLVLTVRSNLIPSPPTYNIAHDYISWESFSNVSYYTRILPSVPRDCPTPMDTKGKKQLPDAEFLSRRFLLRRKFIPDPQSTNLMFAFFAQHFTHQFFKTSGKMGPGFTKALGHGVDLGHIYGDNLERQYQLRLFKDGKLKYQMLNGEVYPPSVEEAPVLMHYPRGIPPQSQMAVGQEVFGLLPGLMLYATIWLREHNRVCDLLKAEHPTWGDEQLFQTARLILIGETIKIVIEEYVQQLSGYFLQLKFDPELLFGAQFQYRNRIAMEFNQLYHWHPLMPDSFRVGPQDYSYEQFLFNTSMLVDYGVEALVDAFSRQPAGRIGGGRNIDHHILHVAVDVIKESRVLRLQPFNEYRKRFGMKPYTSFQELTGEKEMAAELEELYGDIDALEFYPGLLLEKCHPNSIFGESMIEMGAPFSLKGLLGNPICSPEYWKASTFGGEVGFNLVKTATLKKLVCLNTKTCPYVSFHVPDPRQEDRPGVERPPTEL
The experiment in a line: COX inhibition assay, purified cyclooxygenase. The class given is biochemical.

The test system of assay [3] is cGMP PDE purified from human colon HT-29 cultured tumor cells. Briefly: cGMP PDE inhibition assay. It counts as biochemical.
Assay [4] has as its system PDE4 purified from human colon HT-29 cultured tumor cells. The experiment in a line: PDE4 inhibition assay. It counts as biochemical. The following applies: HT-29 cell enzyme.
Assay [5] deals with cGMP and cAMP levels in HT-29 cells. Briefly: Cyclic nucleotide levels in cultured cells by radioimmunoassay. It counts as cell-based, human. Particulars: HT-29 cells treated 30 minutes.
Assay [6] has as its system HT-29 colon adenocarcinoma cells. The experiment in a line: Apoptosis by DNA fragmentation assay in HT-29. Also: key: −: Not active; +: Slightly active; ++: Moderately active; +++: Strongly active; ++++: Highly active. The class given is cell-based, human. Particulars: qualitative activity profile.
Assay [7] has as its system HCT116, Colon. Briefly: Growth inhibition, SRB assay, HCT116. The class given is cell-based. An excerpt:
(§1) A compound's ability to inhibit tumor cell growth can be measured using the HT-29 human colon carcinoma cell line obtained from ATCC. HT-29 cells have previously been characterized as a relevant colon tumor cell culture model (Fogh, J., and Trempe, G. In: Human Tumor Cells in Vitro, J. Fogh (eds.), Plenum Press, New York, pp. 115-159, 1975). HT-29 cells are maintained in RPMI media supplemented with 5% fetal bovine calf serum (Gemini Bioproducts, Inc., Carlsbad, Calif.) and 2 mm glutamine, and 1% antibiotic-antimycotic in a humidified atmosphere of 95% air and 5% CO2 at 37° C. Briefly, HT-29 cells are plated at a density of 500 cells/well in 96 well microtiter plates and incubated for 24 hours at 37° C. prior to the addition of compound. […] After six days in culture, the cells are fixed by the addition of cold trichloroacetic acid to a final concentration of 10% and protein levels are measured using the sulforhodamine B (SRB) colorimetric protein stain assay as previously described by Skehan, P., Storeng, R., Scudiero, D., Monks, A., McMahon, J., Vistica, D., Warren, J. T., Bokesch, H., Kenney, S., and Boyd, M. R., “New Colorimetric Assay For Anticancer-Drug Screening,” J. Natl. Cancer Inst. […]
(§2) To show the effectiveness of this screening method on various forms of neoplasia, compounds were tested on numerous cell lines. […] The IC50 values were determined by the SRB assay. […]

The subject of assay [8] is UACC375, Melanoma. Briefly: Growth inhibition, SRB assay, UACC375. It counts as cell-based.
Excerpt: as §1, §2

Assay [9] has as its system A-427, Lung. Briefly: Growth inhibition, SRB assay, A-427. It counts as cell-based.
Excerpt: as §1, §2

Assay [10] deals with Bronchial Epithelial Cells. The experiment in a line: Growth inhibition, SRB assay, bronchial epithelial cells. The class given is cell-based.
Excerpt: as §1, §2

The test system of assay [11] is premalignant lesions in mouse mammary gland organ culture. Briefly: Mammary gland organ culture model. As to mammary gland organ culture: key: −: Not active; +: Slightly active; ++: Moderately active; +++: Strongly active; ++++: Highly active. The class given is cell-based. An excerpt:
Test compounds identified by the above methods can be tested for antineoplastic activity by their ability to inhibit the incidence of pre-neoplastic lesions in a mammary gland organ culture system. This mouse mammary gland organ culture technique has been successfully used by other investigators to study the effects of known antineoplastic agents such as certain NSAIDs, retinoids, tamoxifen, selenium, and certain natural products, and is useful for validation of the screening method of the present invention.
For example, female BALB/c mice can be treated with a combination of estradiol and progesterone daily, in order to prime the glands to be responsive to hormones in vitro. The animals are sacrificed, and thoracic mammary glands are excised aseptically and incubated for ten days in growth media supplemented with insulin, prolactin, hydrocortisone, and aldosterone. DMBA (7,12-dimethylbenz(a)anthracene) is added to medium to induce the formation of premalignant lesions. Fully developed glands are then deprived of prolactin, hydrocortisone, and aldosterone, resulting in the regression of the glands but not the pre-malignant lesions.
The test compound is dissolved in DMSO and added to the culture media for the duration of the culture period. At the end of the culture period, the glands are fixed in 10% formalin, stained with alum carmine, and mounted on glass slides. The incidence of forming mammary lesions is the ratio of the glands with mammary lesions to […]. The incidence of mammary lesions in test compound treated glands is compared with that of the untreated glands.
The extent of the area occupied by the mammary lesions can be quantitated by projecting an image of the gland onto a digitation pad. The area covered by the gland is traced on the pad and considered as 100% of the area. The space covered by each of the non-regressed structures is also outlined on the digitization pad and quantitated by the computer.
Mammary gland organ culture experiment were performed as previously described (Mehta and Moon, Cancer Research, 46: 5832-5835, 1986). […] The data support the hypothesis that cyclooxygenase inhibition is not necessary for the anti-neoplastic properties of desired compounds.

The target of assay [12] is T3, cGMP binding sites of the GST-cGB-PDE5 protein (Homo sapiens, UniProt O76074).
T3 construct: made in house; host or cells: E. coli BL21 (DE3)
The experiment in a line: cGMP binding assay with GST-cGB-PDE5 fusion protein. Particulars: 3H-cGMP 2 μM.

With “5-fluoro-2-methyl-1-(p-methylsulfinylbenzylidene)-3-indenylacetic acid [Sulindac sulfide]”, the IC50 in assay [1] is 50 µM; in assay [3] (read-out: IC50 for inhibition of cGMP PDE, HT-29 cell enzyme) it was 17 µM; in [4], 41 µM; in assay [7], 45 µM; in [8] it was 50 µM; in assay [9], 90 µM. Half-maximal inhibition in [10] (IC50) required 30 µM. For the same substance, the “Cyclooxygenase inhibitory activity, % Inhibition at 100 μM” value in [2] (100 μM) was 97%. For the same substance, the “COX Inhibition” value in [2] (qualitative activity profile) is reported as “++++”. Further, in [3] (10 μM), the “cGMP PDE inhibitory activity, % Inhibition at 10 μM” value stood at 97%. For the same substance, the “PDE Inhibition” value in assay [3] (qualitative activity profile) is listed as “+++”. Besides, the “effect on cAMP levels” value in assay [5] is “unaffected”. Also, the “increase of cGMP levels” value in [5] is given as “greater than 50%”. For the same substance, the EC50 in assay [5] (read-out: EC50 for increase of cGMP) worked out at 7.3 µM. In addition, in [6], the Apoptosis entry is reported as “+++”. The “inhibition of the formation of premalignant lesions” value in assay [11] (mammary gland organ culture) is “inactive”. Also, the “Mammary Gland Organ Culture” value in assay [11] (qualitative activity profile) is given as “−”. In addition, in [12], the “competition with cGMP in binding of GST-cGB-PDE5” value is recorded as “do not bind to the cGMP binding sites of PDE5”.
